# Measured values from patent publication US10660914B2, “Stuffy nose deblocking composition having antiviral activity” (MARINOMED BIOTECH AG, priority 2015, dated 2020).
# Tests used:
# [1] = Osmolality of carrageenan preparations; assay type: physicochemical
# [2] = system: human rhinovirus 8 (HRV8); test: Inhibition of human rhinovirus 8 infection of Hela cells (cell viability, IC50)
# Method: (§1) Hela cells were seeded into 96 well plates with a cell density of 5*10^3 cells per well and cultivated for 24 hours in a standard DMEM tissue culture medium containing 4.5 g/I glucose. Virus suspensions containing carrageenan polymer at varying concentrations of between 0 and 150 μg/ml, in combination with NaCl and sorbitol (as indicated in the respective legends to each table) in a dilution series, were incubated for 30 minutes. Cells were infected with these virus suspensions containing the test substances and 7*10^3 (HRV1a) or 5*10^4 (HRV8) infectious units per well. 30 minutes after infection the virus inoculum was removed and substituted by virus-free infection medium containing carrageenan polymer, NaCl salt and sorbitol in the concentrations to be tested. The cells were incubated for 2 to 3 days at 33° C. […] An incubation of cells with the same dilution series of test substances (i.e. carragenan component plus osmolalitiy adjusting agents) in the absence of viral infection was performed to monitor for a potential toxicity of the treatment. Calculation of IC50 values was performed with standard fitting software ExcelFit.
# [3] = system: human coronavirus OC43; test: Hemagglutination inhibition assay, minimal inhibitory concentration for prevention of hCoV OC43 attachment to chicken RBCs; assay type: cell-based
# Method: On a 96-well plate, two hemagglutination units of hCoV OC43/well were incubated with a ½-log dilution series of test or control samples for 10 min at room temperature. Final assay concentrations were 0.002 to 3 μg/ml iota-carrageenan in aqueous 0.5, 0.9, 2.0, 2.3 or 2.6% NaCl solution in the presence or absence of 7% sorbitol. Then, a suspension of chicken RBCs (1% v/v in PBS) was added to each well to allow hemagglutination of red blood cells (RBCs) by the virus for 1.5 hrs at 4° C. At the time point of assay evaluation, control RBCs in the absence of carrageenan were fully agglutinated, whereas hemagglutination was inhibited in the presence of carrageenan up to a sample-specific concentration, the minimal inhibitory concentration.
# [4] = system: human rhinovirus 1a (HRV1a); test: Inhibition of human rhinovirus 1a infection of Hela cells (cell viability, IC50)
# Method: as §1
# [5] = 0.9% NaCl (295 mOsm/kg) compared to 0.5% NaCl (174 mOsm/kg)
# [6] = 2% NaCl (670 mOsm/kg) compared to 0.5% NaCl (174 mOsm/kg)
# [7] = 2.3% NaCl (776 mOsm/kg) compared to 0.5% NaCl (174 mOsm/kg)
# [8] = 2.6% NaCl (872 mOsm/kg) compared to 0.5% NaCl (174 mOsm/kg)
substance,measurement,setting,value
iota-carrageenan [iota carrageenan],osmolality,"[1]; Table 1, solution with 0.9% NaCl",295 mOsm/kg
same,osmolality,"[1]; Table 1, solution with 2% NaCl",670 mOsm/kg
same,osmolality,"[1]; Table 1, solution with 2.3% NaCl",776 mOsm/kg
same,osmolality,"[1]; Table 1, solution with 2.6% NaCl",872 mOsm/kg
same,osmolality,"[1]; Table 4, solution with 0.9% NaCl",295 mOsm/kg
same,osmolality,"[1]; Table 4, solution with 2% NaCl",670 mOsm/kg
same,osmolality,"[1]; Table 4, solution with 2.3 NaCl",776 mOsm/kg
same,osmolality,"[1]; Table 4, solution with 2.6% NaCl",872 mOsm/kg
same,osmolality,"[1]; Table 5, solution with 0.5% NaCl + 7% sorbitol",597 mOsm/kg
same,osmolality,"[1]; Table 5, solution with 0.9% NaCl + 7% sorbitol",733 mOsm/kg
same,osmolality,"[1]; Table 5, solution with 2.3% NaCl",748 mOsm/kg
same,"Increase of IC50 value, HRV8 inhibition",[2]; [5],1.8-fold (ns)
same,"Increase of IC50 value, HRV8 inhibition",[2]; [6],3.6-fold*
same,"Increase of IC50 value, HRV8 inhibition",[2]; [7],6.9-fold*
same,"Increase of IC50 value, HRV8 inhibition",[2]; [8],7.5-fold*
same,"Increase of the minimal inhibitory concentration, hCV OC43",[3]; 0.5% NaCl + 7% sorbitol (597 mOsm/kg) compared to 0.5% NaCl (174 mOsm/kg),1-fold (ns)
same,"Increase of the minimal inhibitory concentration, hCV OC43",[3]; [5],1-fold (ns)
same,"Increase of the minimal inhibitory concentration, hCV OC43",[3]; 0.9% NaCl + 7% sorbitol (733 mOsm/kg) compared to 0.5% NaCl (174 mOsm/kg),1-fold (ns)
same,"Increase of the minimal inhibitory concentration, hCV OC43",[3]; [6],10-fold*
same,"Increase of the minimal inhibitory concentration, hCV OC43",[3]; 2.3% NaCl (748 mOsm/kg) compared to 0.5% NaCl (174 mOsm/kg),10-fold*
same,"Increase of the minimal inhibitory concentration, hCV OC43",[3]; 2.3 NaCl (776 mOsm/kg) compared to 0.5% NaCl (174 mOsm/kg),10-fold*
same,"Increase of the minimal inhibitory concentration, hCV OC43",[3]; [8],10-fold*
same,"Increase of IC50 value, HRV1a inhibition",[4]; 0.9% NaCl (295 mOsm/kg) compared to hypoosmolar 0.5% NaCl solution (174 mOsm/kg),3.1-fold* ^
same,"Increase of IC50 value, HRV1a inhibition",[4]; [6],14.5-fold*
same,"Increase of IC50 value, HRV1a inhibition",[4]; [7],22.3-fold*
same,"Increase of IC50 value, HRV1a inhibition",[4]; [8],33.7-fold*
same,reduction in inhibitory efficacy on human rhinovirus replication,"[4]; isoosmolar (0.9%) and hyperosmolar (2%, 2.3%, 2.6% NaCl) compared with hypoosmolar solution (0.5% NaCl), summary of Table 1",≤ 34 fold
